Assay results taken from patent US6495592B1, “Tracheal smooth muscle relaxants” (Nippon Suisan Kaisha, Ltd., priority 1996, dated 2002).

Assays:
tracheal smooth muscle = assay: Dilating action to contraction of tracheal smooth muscle (potassium chloride-induced contraction of isolated trachea segment, Magnus tube); assay type: cell-based; settings: Cavia porcellus; 30 μM test substance; contraction induced by 72.7 mM potassium chloride; guinea pig (Hartley, male) trachea segment; read-out: Activity (suppressing rate for contraction by potassium chloride)
Procedure: Each sample is tested by using two segment obtained from one animal; the trachea was removed from a guinea pig (Hartley, male, seven weeks age) and was made the segment, 6 mm in length. The segment was suspended in a Magnus tube containing a physiological salt solution of 37° C. with a flow of mixed gas consisting of 95% oxygen and 5% carbon dioxide gas. A base-line tension of 1 g was applied to the segment and, after tension of the sample became stable, the solution was exchanged with a solution containing 72.7 mM of potassium chloride to induce a contraction. When tension of the contraction by potassium chloride became stable, a compound of the formula (1) was added as a test substance to measure the change in the tension. The test substance was dissolved in dimethyl sulfoxide and added thereto. Incidentally, at the stage of addition, the final concentration of dimethyl sulfoxide was made not more than 0.3%. Changes in the tension was recorded on a recorder (R-64V, Rika Denki) after introducing to an amplifier for strain pressure (AP-621G, Nippon Koden Kogyo) via an FD pickup transducer (TB-611T, Nippon Koden Kogyo). Tension before addition of potassium chloride was set as 0 while that after addition of potassium chloride was set as 100 and the suppressing rate for contraction by potassium chloride after addition of the test substance was expressed by a relative percentage whereby the activity was determined according to the following criteria.
The Compound No. in the table is the same as that in the Production Examples.

rats = settings: male, rat, in vivo
Procedure: Toxicity test was conducted only for the Compounds 11, 43 and 80 by means of a single oral administration to rats.
Animals used: three males

O=C1Cc2ccccc2Sc2cc(O)cc(O)c21 [Compound 80, 7,9-dihydroxy-10,11-dihydrodibenzo[b,f]thiepin-10-one]
inhibition at 30 µM (tracheal smooth muscle): ≥ 50% | minimum lethal dose (rats): not less than 2,000 mg/kg

O=C1Cc2ccccc2Oc2cc(O)cc(O)c21 [Compound 11, 7,9-dihydroxy-10,11-dihydrodibenz[b,f]oxepin-10-one]
inhibition at 30 µM (tracheal smooth muscle): ≥ 50% | minimum lethal dose (rats): not less than 2,000 mg/kg

O=C1Cc2ccccc2Sc2cc(O)c(O)cc21 [Compound 43, 7,8-dihydroxy-10,11-dihydrodibenzo[b,f]thiepin-10-one]
minimum lethal dose (rats): not less than 2,000 mg/kg

O=C1Cc2cc(C(F)(F)F)ccc2Oc2cc(O)cc(O)c21 [Compound 38, 7,9-dihydroxy-2-trifluoromethyl-10,11-dihydrodibenz[b,f]oxepin-10-one]
inhibition at 30 µM (tracheal smooth muscle): ≥ 50%

Oc1cc(O)c2c(c1)Sc1ccccc1CC2 [Compound 81, 10,11-dihydrodibenzo[b,f]thiepin-1,3-diol]
inhibition at 30 µM (tracheal smooth muscle): ≥ 50%

CC(=O)c1c(O)cc(O)c2c1Sc1ccccc1CC2 [Compound 85, 4-acetyl-10,11-dihydrodibenzo[b,f]thiepin-1,3-diol]
inhibition at 30 µM (tracheal smooth muscle): ≥ 50%

CCC(=O)c1c(O)cc(O)c2c1Sc1ccccc1CC2 [Compound 90, 4-propionyl-10,11-dihydrodibenzo[b,f]thiepin-1,3-diol]
inhibition at 30 µM (tracheal smooth muscle): ≥ 50%
